PubChem BioAssay AID1205 (EPA DSSTox, 2008)
Activity calls are given as the source filed them.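 Rule for the calls: active = tumour findings in long-term animal cancer tests in more than one sex, species or organ; inactive = no tumour finding and more than one negative test.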

Experiment: DSSTox (CPDBAS) Carcinogenic Potency Database Summary MultiCellCall Results
Conditions: animal carcinogenicity bioassays, multi-cell call summary
Method in brief: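 Summary call drawn from chronic long-term cancer bioassays in rats, mice, hamsters, dogs and nonhuman primates, using the most positive result per sex-species. Score: multispecies=50, multisex=30, multisite=20, summed for combinations.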

Row | Compound | outcome
1 | CCCCN(N=O)C(N)=O | active; multisite active; multisex active
2 | Oc1c(Cl)cc(Cl)cc1Sc1cc(Cl)cc(Cl)c1O | inactive; multisex inactive
3 | N[C@@H](CCC(=O)O)C(=O)O | inactive; multisex inactive; multispecies inactive
4 | COc1c2occc2cc2ccc(=O)oc12 | active; multisite active
5 | c1ccc2c(c1)[nH]c1ccccc12 | active; multisite active; multisex active
6 | C=C1C(C)(C)[C@@]2(Cl)C(Cl)[C@]1(Cl)C(Cl)(Cl)C2(Cl)Cl (stereo not given in full) | active; multisite active
7 | Brc1cc(Br)c(-c2c(Br)c(Br)c(Br)c(Br)c2Br)c(Br)c1Br | active; multisex active
8 | CCCCC1(COC(=O)CCC(=O)O)C(=O)N(c2ccccc2)N(c2ccccc2)C1=O | inactive; multisex inactive
9 | NNC(=O)c1ccncc1 | active; multisite active; multisex active; multispecies active
10 | OC[P+](CO)(CO)CO | inactive; multisex inactive; multispecies inactive
11 | O=S(=O)(O)c1cc(S(=O)(=O)O)c2c(N=Nc3ccccc3)c(O)ccc2c1 | inactive; multisex inactive; multispecies inactive
12 | O=[As]O | inactive; multispecies inactive
13 | Cc1ccc(S(=O)(=O)Oc2ccc(N=Nc3ccc(-c4ccc(N=Nc5c(O)ccc6cc(S(=O)(=O)O)cc(S(=O)(=O)O)c56)c(C)c4)cc3C)cc2)cc1 | active; multisite active; multisex active
14 | COP(=S)(OC)SCn1nnc2ccccc2c1=O | inactive; multisex inactive; multispecies inactive
15 | Cc1cccc2cccnc12 | inactive; multisex inactive
16 | C1N2CN3CN1CN(C2)C3 | inactive; multisex inactive; multispecies inactive
17 | Nc1ccc2c(c1)C(=O)c1ccccc1C2=O | active; multisite active; multisex active; multispecies active
18 | CC(=O)CN(C)N=O | active; multisite active; multisex active
19 | Cc1ccc(S(=O)(=O)OCCN(C)N=O)cc1 | active; multisite active; multisex active
20 | C=COC(C)=O | active; multisite active; multisex active; multispecies active
21 | CC(C)NCC(O)COc1ccc(CC(N)=O)cc1 (stereo not given) | inactive; multisex inactive
22 | CCNC(=O)Nc1ncc([N+](=O)[O-])s1 | active; multisite active; multisex active; multispecies active
23 | CCN=c1cc2oc3cc(NCC)c(C)cc3c(-c3ccccc3C(=O)OCC)c-2cc1C | inactive; multisex inactive; multispecies inactive
24 | O=C(Nc1ccc2c(c1)Cc1ccccc1-2)C(F)(F)F | active; multisite active

Row | Compound | outcome
25 | CC(C)(C)NC[C@H](O)COc1cccc2c1CCCC2=O | inactive; multisex inactive; multispecies inactive
26 | CCCCCCCCCCCCCCCC(=O)OC/C=C(C)/C=C/C=C(C)/C=C/C1=C(C)CCCC1(C)C | inactive; multispecies inactive
27 | CN(C)CCN(Cc1cccs1)c1ccccc1 | inactive; multisex inactive
28 | CC(O)CN(CC(O)CO)N=O (stereo not given) | active; multisite active; multispecies active
29 | NC(=S)NNC(N)=S | inactive; multisex inactive; multispecies inactive
30 | Nc1ccc(Oc2ccc(Cl)cc2)cc1 | active; multisite active; multisex active; multispecies active
31 | CNC(=O)O/N=C(\SC)C(=O)N(C)C | inactive; multisex inactive; multispecies inactive
32 | CNCCc1ccc(OC(=O)C(C)C)c(OC(=O)C(C)C)c1 | inactive; multisex inactive
33 | CO[C@@]12[C@H](COC(N)=O)C3=C(C(=O)C(C)=C(N)C3=O)N1C[C@@H]1N[C@@H]12 | active; multisex active
34 | Cn1cc[nH]c1=S | active; multisex active
35 | O=C(O)CC[N+](=O)[O-] | inactive; multisex inactive; multispecies inactive
36 | CCCCCCCCCCCN(C)N=O | active; multisite active
37 | CN(N=O)c1ccccc1 | active; multisex active
38 | CN(C)[C@@H]1C(=O)C(C(N)=O)=C(O)[C@@]2(O)C(=O)C3=C(O)c4c(O)cccc4[C@@](C)(O)[C@H]3C[C@@H]12 | inactive; multisex inactive; multispecies inactive
39 | O=NN1CCCCCCCCCCCC1 | active; multisex active
40 | O=NN1CCCC1c1cccnc1 (stereo not given) | active; multisite active; multisex active; multispecies active
41 | O=C1OC(=O)c2ccccc21 | inactive; multisex inactive; multispecies inactive
42 | CC/C(C)=N/O | active; multispecies active
43 | CCCCNNCCCC | active; multisite active; multisex active
44 | O=S(=O)(Oc1ccc(Cl)cc1)c1ccc(Cl)cc1 | inactive; multisex inactive
45 | N#CS | inactive; multisex inactive
46 | O=NN(CCCl)C(=O)N[C@@H]1[C@@H](O)[C@H](O)[C@@H](CO)O[C@@H]1O | active; multisex active
47 | Cn1cc(C(=O)O)c(=O)c2ccc(/C=C/c3ccc([N+](=O)[O-])o3)nc21 | active; multisite active
48 | O=C1Nc2ccc(Cl)cc2C(c2ccccc2)=NC1O (stereo not given) | active; multisite active; multisex active

Row | Compound | outcome
49 | CCOP(=S)(OCC)Oc1ccc([N+](=O)[O-])cc1 | inactive; multisex inactive; multispecies inactive
50 | CN(CC(O)CO)N=O (stereo not given) | active; multisite active; multispecies active
51 | O=[N+]([O-])c1ccc(-c2nc(N(CCO)CCO)c3ccccc3n2)s1 | active; multisite active
52 | N=c1ccn2c(n1)O[C@H]1[C@H](O)[C@@H](CO)O[C@H]12 | inactive; multisex inactive
53 | Nc1cc(S(=O)(=O)O)cc2cc(S(=O)(=O)O)c(N=Nc3ccc(-c4ccc(N=Nc5c(S(=O)(=O)O)cc6cc(S(=O)(=O)O)cc(N)c6c5O)cc4)cc3)c(O)c12 | active; multisex active
54 | CC(C)NCC(O)c1ccc(NS(C)(=O)=O)cc1 (stereo not given) | inactive; multisex inactive; multispecies inactive
55 | O=C1CCO1 | active; multisex active; multispecies active
56 | N[C@@H](CC(=O)O)C(=O)O | inactive; multisex inactive
57 | O=CNNC=O | active; multisex active
58 | O=[N+]([O-])c1ccc2nc[nH]c2c1 | active; multisex active
59 | Cc1[nH]cnc1CSCCN=C(NC#N)N(C)N=O | inactive; multisex inactive; multispecies inactive
60 | COC1[C@@H](O[C@@H]2O[C@H](C)[C@@H](O[C@H]3C[C@@](C)(O)[C@H](OC(=O)CC(C)C)[C@H](C)O3)[C@H](N(C)C)[C@H]2O)[C@@H](CC=O)C[C@@H](C)[C@@H](O)/C=C/C=C/C[C@@H](C)OC(=O)C[C@H]1OC(C)=O (stereo not given in full) | inactive; multisex inactive
61 | C=CC#N | active; multisite active; multisex active
62 | Cc1ccccc1N | active; multisite active; multisex active; multispecies active
63 | Cc1cc(C)nc(-c2ccc([N+](=O)[O-])o2)n1 | active; multisite active
64 | COC1=CC(=O)C[C@@H](C)[C@]12Oc1c(Cl)c(OC)cc(OC)c1C2=O | active; multisite active; multisex active
65 | CC1=C(C)C(=O)C(C(CCCCCC(=O)O)c2ccccc2)=C(C)C1=O (stereo not given) | inactive; multisex inactive
66 | S=c1nc[nH]c2nc[nH]c12 | inactive; multisex inactive
67 | CC(=O)NCc1nc(-c2ccc([N+](=O)[O-])o2)no1 | active; multisite active
68 | CC[C@H]1OC(=O)C[C@@H](O)[C@H](C)[C@@H](O[C@@H]2O[C@H](C)[C@@H](O[C@H]3C[C@@](C)(O)[C@@H](O)[C@H](C)O3)[C@H](N(C)C)[C@H]2O)[C@@H](CC=O)C[C@@H](C)C(=O)/C=C/C(C)=C/C1CO[C@@H]1O[C@H](C)[C@@H](O)[C@@H](OC)[C@H]1OC (stereo not given in full) | inactive; multisex inactive
69 | Cc1c(N(C)C)c(=O)n(-c2ccccc2)n1C | inactive; multisex inactive
70 | Cc1cnc(NC(=O)C2=C(O)c3ccccc3S(=O)(=O)N2C)s1 | inactive; multisex inactive
71 | Cc1ccc2c(-c3ccccc3)nc(=O)n(C(C)C)c2c1 | inactive; multisex inactive
72 | OCCO | inactive; multisex inactive

Row | Compound | outcome
73 | CCCCOCCO | active; multisite active; multisex active
74 | Oc1ccccc1O | active; multisex active; multispecies active
75 | CN(C)N=O | active; multisite active; multisex active; multispecies active
76 | CCN(N=O)C(=O)NCC(C)=O | active; multisite active; multisex active; multispecies active
77 | NC(=O)N/N=C/c1ccc([N+](=O)[O-])o1 | active; multisite active; multispecies active
78 | O=NN1CCC[C@H]1C(=O)O | inactive; multisex inactive
79 | O=C1C(Cl)=C(Cl)C(=O)c2ccccc21 | inactive; multisex inactive
80 | CCOC(=O)[C@H](CCc1ccccc1)N[C@@H](C)C(=O)N1Cc2ccccc2C[C@H]1C(=O)O | inactive; multisex inactive; multispecies inactive
81 | CC(=O)Nc1ccc(O)cc1 | active; multisite active; multisex active; multispecies active
82 | CC(Oc1ccc(Cl)cc1Cl)C(=O)O (stereo not given) | inactive; multisex inactive
83 | O=C(C1CCCCC1)N1CC(=O)N2CCc3ccccc3C2C1 (stereo not given) | inactive; multisex inactive; multispecies inactive
84 | Nc1ccc(N=Nc2ccc(N)cc2)cc1 | inactive; multisex inactive
85 | CC(=O)NNC(=O)c1ccncc1 | active; multisex active
86 | N#CC(c1ccccc1)c1ccccc1 | inactive; multisex inactive
87 | C=CCN(CC(C)=O)N=O | active; multisite active; multispecies active
88 | CC[N+](=O)[O-] | inactive; multisex inactive
89 | CC(=O)[O][Sn]([c]1ccccc1)([c]1ccccc1)[c]1ccccc1 | inactive; multisex inactive
90 | C[C@H](CCC(=O)O)[C@H]1CC[C@H]2[C@@H]3CC[C@@H]4C[C@H](O)CC[C@]4(C)[C@H]3CC[C@]12C | inactive; multisex inactive; multispecies inactive
91 | CCCCC(CC)COC(=O)CCCCC(=O)OCC(CC)CCCC (stereo not given) | active; multisex active
92 | FC(F)OC(F)(F)C(F)Cl (stereo not given) | inactive; multisex inactive
93 | c1ccc2n[nH]nc2c1 | inactive; multisex inactive; multispecies inactive
94 | C=Cc1cccc[n+]1[O-] | inactive; multispecies inactive
95 | CC1=NN(c2ccccc2)C(=O)C1 | inactive; multisex inactive; multispecies inactive
